Test: xn = mol fraction of the nth substance listed
Conditions: 100.9 kPa, Liquid; for viscosity: Concentric cylinders viscometry; for speed of sound: Single path-length method; for mass density: Vibrating tube method

CCCC(=O)[O-].CC[NH2+]CC [diethylammonium butanoate] + O
Conditions | mass density [kg/m3] | speed of sound [m/s] | viscosity [mPa·s]
283.15 K, x1 = 0.0122 | – | – | 2.24
283.15 K, x1 = 0.0123 | 1003.65 | 1576.3 | –
283.15 K, x1 = 0.0451 | – | – | 6.91
283.15 K, x1 = 0.0453 | 1013.08 | 1794.6 | –
283.15 K, x1 = 0.0999 | – | – | 19.26
283.15 K, x1 = 0.1005 | 1011.54 | 1814.6 | –
283.15 K, x1 = 0.143 | – | – | 32.03
283.15 K, x1 = 0.1439 | 1001.71 | 1786.4 | –
283.15 K, x1 = 0.2051 | – | – | 56.72
283.15 K, x1 = 0.2067 | 989.91 | 1733.5 | –
283.15 K, x1 = 0.3064 | – | – | 106.48
283.15 K, x1 = 0.3096 | 976.25 | – | –
283.15 K, x1 = 0.4879 | – | – | 158.58
283.15 K, x1 = 0.4951 | 956.67 | 1577.4 | –
283.15 K, x1 = 0.6684 | – | – | 158.29
283.15 K, x1 = 0.6812 | 941.81 | 1516.2 | –
283.15 K, x1 = 0.7974 | 930.25 | 1494.8 | –
283.15 K, x1 = 0.974 | 925.8 | 1460.5 | 130.18
285.65 K, x1 = 0.0122 | – | – | 2.07
285.65 K, x1 = 0.0451 | – | – | 6.16
285.65 K, x1 = 0.0999 | – | – | 16.84
285.65 K, x1 = 0.143 | – | – | 27.94
285.65 K, x1 = 0.2051 | – | – | 49.1
285.65 K, x1 = 0.3064 | – | – | 91.1
285.65 K, x1 = 0.4879 | – | – | 135.58
285.65 K, x1 = 0.6684 | – | – | 135.69
285.65 K, x1 = 0.974 | – | – | 112.13
288.15 K, x1 = 0.0122 | – | – | 1.91
288.15 K, x1 = 0.0123 | 1002.55 | 1586.3 | –
288.15 K, x1 = 0.0451 | – | – | 5.5
288.15 K, x1 = 0.0453 | 1010.64 | 1786.6 | –
288.15 K, x1 = 0.0999 | – | – | 14.79
288.15 K, x1 = 0.1005 | 1007.9 | 1802.4 | –
288.15 K, x1 = 0.143 | – | – | 24.41
288.15 K, x1 = 0.1439 | 996.76 | 1773 | –
288.15 K, x1 = 0.2051 | – | – | 42.55
288.15 K, x1 = 0.2067 | 985.95 | 1718.7 | –
288.15 K, x1 = 0.3064 | – | – | 78.15
288.15 K, x1 = 0.3096 | 972.8 | – | –
288.15 K, x1 = 0.4879 | – | – | 116.04
288.15 K, x1 = 0.4951 | 952.3 | 1561.4 | –
288.15 K, x1 = 0.6684 | – | – | 116.61
288.15 K, x1 = 0.6812 | 938.34 | 1499.7 | –
288.15 K, x1 = 0.7974 | 926.65 | 1479.8 | –
288.15 K, x1 = 0.974 | 922.1 | 1448.3 | 96.9
290.65 K, x1 = 0.0122 | – | – | 1.77
290.65 K, x1 = 0.0451 | – | – | 4.96
290.65 K, x1 = 0.0999 | – | – | 13.09
290.65 K, x1 = 0.143 | – | – | 21.48
290.65 K, x1 = 0.2051 | – | – | 37.08
290.65 K, x1 = 0.3064 | – | – | 67.44
290.65 K, x1 = 0.4879 | – | – | 99.81
290.65 K, x1 = 0.6684 | – | – | 100.54
290.65 K, x1 = 0.974 | – | – | 84.07
293.15 K, x1 = 0.0122 | – | – | 1.64
293.15 K, x1 = 0.0123 | 1001.45 | 1594.8 | –
293.15 K, x1 = 0.0451 | – | – | 4.49
293.15 K, x1 = 0.0453 | 1008.2 | 1779.5 | –
293.15 K, x1 = 0.0999 | – | – | 11.64
293.15 K, x1 = 0.1005 | 1004.13 | 1789.3 | –
293.15 K, x1 = 0.143 | – | – | 18.97
293.15 K, x1 = 0.1439 | 992.35 | 1759.3 | –
293.15 K, x1 = 0.2051 | – | – | 32.47
293.15 K, x1 = 0.2067 | 984.2 | 1705.2 | –
293.15 K, x1 = 0.3064 | – | – | 58.44
293.15 K, x1 = 0.3096 | 969.35 | 1629.1 | –
293.15 K, x1 = 0.4879 | – | – | 86.09
293.15 K, x1 = 0.4951 | 949.58 | 1539.3 | –
293.15 K, x1 = 0.6684 | – | – | 87.06
293.15 K, x1 = 0.6812 | 937.26 | 1485.3 | –
293.15 K, x1 = 0.7974 | 923.05 | 1464.7 | –
293.15 K, x1 = 0.974 | 918.5 | 1433.9 | 73.19
295.65 K, x1 = 0.0122 | – | – | 1.53
295.65 K, x1 = 0.0451 | – | – | 4.05
295.65 K, x1 = 0.0999 | – | – | 10.38
295.65 K, x1 = 0.143 | – | – | 16.84
295.65 K, x1 = 0.2051 | – | – | 28.55
295.65 K, x1 = 0.3064 | – | – | 50.88
295.65 K, x1 = 0.4879 | – | – | 74.58
295.65 K, x1 = 0.6684 | – | – | 75.69
295.65 K, x1 = 0.974 | – | – | 63.97
298.15 K, x1 = 0.0122 | – | – | 1.43
298.15 K, x1 = 0.0123 | 1000.1 | 1601.8 | –
298.15 K, x1 = 0.0451 | – | – | 3.69
298.15 K, x1 = 0.0453 | 1005.56 | 1770.9 | –
298.15 K, x1 = 0.0999 | – | – | 9.31
298.15 K, x1 = 0.1005 | 1000.56 | 1776.6 | –
298.15 K, x1 = 0.143 | – | – | 15.02
298.15 K, x1 = 0.1439 | 988.22 | 1745.3 | –
298.15 K, x1 = 0.2051 | – | – | 25.19
298.15 K, x1 = 0.2067 | 979.99 | 1690.3 | –
298.15 K, x1 = 0.3064 | – | – | 44.32
298.15 K, x1 = 0.3096 | 965.6 | 1613.5 | –
298.15 K, x1 = 0.4879 | – | – | 64.82
298.15 K, x1 = 0.4951 | 945.79 | 1523.9 | –
298.15 K, x1 = 0.6684 | – | – | 66.04
298.15 K, x1 = 0.6812 | 933.71 | 1468.9 | –
298.15 K, x1 = 0.7974 | 919.45 | 1455.8 | –
298.15 K, x1 = 0.974 | 914.7 | 1417.5 | 56.14
300.65 K, x1 = 0.0122 | – | – | 1.34
300.65 K, x1 = 0.0451 | – | – | 3.36
300.65 K, x1 = 0.0999 | – | – | 8.4
300.65 K, x1 = 0.143 | – | – | 13.44
300.65 K, x1 = 0.2051 | – | – | 22.34
300.65 K, x1 = 0.3064 | – | – | 38.93
300.65 K, x1 = 0.4879 | – | – | 56.68
300.65 K, x1 = 0.6684 | – | – | 57.86
300.65 K, x1 = 0.974 | – | – | 49.5
303.15 K, x1 = 0.0122 | – | – | 1.26
303.15 K, x1 = 0.0123 | 998.8 | 1607.5 | –
303.15 K, x1 = 0.0451 | – | – | 3.08
303.15 K, x1 = 0.0453 | 1002.83 | 1762.1 | –
303.15 K, x1 = 0.0999 | – | – | 7.62
303.15 K, x1 = 0.1005 | 997.23 | 1763.5 | –
303.15 K, x1 = 0.143 | – | – | 12.08
303.15 K, x1 = 0.1439 | 984.45 | 1731.1 | –
303.15 K, x1 = 0.2051 | – | – | 19.91
303.15 K, x1 = 0.2067 | 976.3 | 1675.2 | –
303.15 K, x1 = 0.3064 | – | – | 34.33
303.15 K, x1 = 0.3096 | 960.9 | 1597.6 | –
303.15 K, x1 = 0.4879 | – | – | 49.68
303.15 K, x1 = 0.4951 | 941.96 | 1509.1 | –
303.15 K, x1 = 0.6684 | – | – | 50.88
303.15 K, x1 = 0.6812 | 930.52 | 1452.3 | –
303.15 K, x1 = 0.7974 | 915.75 | 1439.9 | –
303.15 K, x1 = 0.974 | 910.9 | 1400.2 | 43.73
305.65 K, x1 = 0.0122 | – | – | 1.19
305.65 K, x1 = 0.0451 | – | – | 2.84
305.65 K, x1 = 0.0999 | – | – | 6.89
305.65 K, x1 = 0.143 | – | – | 10.89
305.65 K, x1 = 0.2051 | – | – | 17.8
305.65 K, x1 = 0.3064 | – | – | 30.43
305.65 K, x1 = 0.4879 | – | – | 43.74
305.65 K, x1 = 0.6684 | – | – | 44.91
305.65 K, x1 = 0.974 | – | – | 38.76
308.15 K, x1 = 0.0122 | – | – | 1.12
308.15 K, x1 = 0.0123 | – | 1611.9 | –
308.15 K, x1 = 0.0451 | – | – | 2.62
308.15 K, x1 = 0.0453 | – | 1753.1 | –
308.15 K, x1 = 0.0999 | – | – | 6.28
308.15 K, x1 = 0.1005 | – | 1750.2 | –
308.15 K, x1 = 0.143 | – | – | 9.83
308.15 K, x1 = 0.1439 | – | 1716.8 | –
308.15 K, x1 = 0.2051 | – | – | 15.99
308.15 K, x1 = 0.3064 | – | – | 27.04
308.15 K, x1 = 0.4879 | – | – | 38.47
308.15 K, x1 = 0.6684 | – | – | 39.77
308.15 K, x1 = 0.974 | – | – | 34.5

Source: the NIST ThermoML archive (doi:10.1016/j.fluid.2017.12.001)
